Tests used:
lysosomal hydrolases = assay: 125I-EGF degradation by aortic strips; set-up: species or system rabbit; settings: 200 μM chloroquine, 3.5 h
Method: Iodination of EGF and assay for ^125I-EGF degradation. Epidermal growth factor (50 μg) was radioiodinated to a specific activity of 5400 counts/min/ng (IODOBEADS®, Pierce Chemical Co., Rockford, Ill.) and was used within 48 h of labeling.
For this study, ^125I-labeled epidermal growth factor (^125I-EGF) was used, which is known to be internalized by receptor-mediated endocytosis and degraded in lysosomes in many cell types (Goldstein et al., 1985).

arterial-wall SMase = settings: for hydrolysis of LDL-sphingomyelin by rabbit aorta ex vivo (summary statement): Example 4 restatement
Method: Hydrolysis of [^3H]SM-LDL by strips of rabbit aorta. Aortae were isolated from rabbits fed a high-cholesterol diet for 18 d and incubated ex vivo for 3.5 h at 37° C. with 2 mg [^3H]palmitate-SM-labeled LDL per ml DMEM/0.2% BSA (usually ^18 12 mg total). Material extracted from these strips (Retained) was assayed for [^3H]SM and [^3H]ceramide; approximately 0.1% of the [^3H]SM-LDL (10-20 μg LDL protein) was retained during the 3.5-h incubation period. These [^3H]lipids were also assayed in ^3[H]SM-LDL not exposed to aorta but incubated in extraction buffer (No Aorta) as well as in [^3H]SM-LDL that was not retained by the aortic strips (i.e., still present in the medium after the 3.5-h incubation) and also incubated in extraction buffer (Unretained). For experiments #1 and #2 (FIG. 6A), portions of the aortic strips were preincubated with DMEM/0.2% BSA containing 15 mM EDTA for 30 min, and the 3.5-h incubation was also carried out in the presence of 15 mM EDNA.
Assay for LDL-SM hydrolysis by strips of rabbit aorta ex vivo. New Zealand white male rabbits (2-3 kg) were fed a chow diet containing 0.2% cholesterol and 10% soybean oil (w/w) for 18 days. The animals were sacrificed, and the thoracic aortae were removed rapidly and placed in a dissection dish with physiological Hank's Trizma maleate buffer (133 mM NaCl, 3.6 mM KCl, 1.0 mM CaCl2, 5.0 mM Trizma maleate, 16 mM dextrose, pH 7.3). The aortae were then further dissected to remove excess fat and any clotted blood and then cut longitudinally and pinned, lumen side up, in a tissue culture dish. The aortic strips were washed several times with DMEM/0.2% BSA and incubated at 37° C. for 3.5 h in DMEM/0.2% BSA containing 2 mg [^3H]SM-labeled LDL per ml. […] When present, these reagents were also added to the corresponding incubation media containing labeled LDL (see legend to FIG. 5). After the 3.5-h incubation of labeled LDL with aortic strips, media were removed (see below), the aortic strips were quickly washed twice in ice-cold PBS, and the center of the strip was cut away from the original cut ends. These center pieces were then minced and extracted in PBS, pH 7.4, containing 6 M guanidine-HCl, 5 mM EDTA, 0.02% sodium azide, 35 μM leupeptin, 1.5 mg aprotinin/ml, and 5 μM pepstatin A for 36 h at 4° C. The extract was centrifuged at 35,000×g for 30 min, and lipids were extracted from the supernate by the method of Bligh and Dyer (Bligh et al., 1959). [^3H]palmitate-SM, ^3 [H]palmitate-ceramide, and free [^3H]palmitate in the lipid extracts were separated by TLC using chloroform:methanol (95:5, v/v) or n-propanol:12.5% ammonium hydroxide (80:20, v/v). […]

lysosomal SMase = biological target: T1, lysosomal SMase (Homo sapiens, UniProt P17405); assay: Cellular hydrolysis of [3H]SM-LDL by cultured human fibroblasts; format: cell-based; settings: read-out: inhibition of cellular hydrolysis of [3H]SM-LDL
T1 construct: endogenous in cells; host or cells: cultured human fibroblasts
T1 sequence (P17405 47-631): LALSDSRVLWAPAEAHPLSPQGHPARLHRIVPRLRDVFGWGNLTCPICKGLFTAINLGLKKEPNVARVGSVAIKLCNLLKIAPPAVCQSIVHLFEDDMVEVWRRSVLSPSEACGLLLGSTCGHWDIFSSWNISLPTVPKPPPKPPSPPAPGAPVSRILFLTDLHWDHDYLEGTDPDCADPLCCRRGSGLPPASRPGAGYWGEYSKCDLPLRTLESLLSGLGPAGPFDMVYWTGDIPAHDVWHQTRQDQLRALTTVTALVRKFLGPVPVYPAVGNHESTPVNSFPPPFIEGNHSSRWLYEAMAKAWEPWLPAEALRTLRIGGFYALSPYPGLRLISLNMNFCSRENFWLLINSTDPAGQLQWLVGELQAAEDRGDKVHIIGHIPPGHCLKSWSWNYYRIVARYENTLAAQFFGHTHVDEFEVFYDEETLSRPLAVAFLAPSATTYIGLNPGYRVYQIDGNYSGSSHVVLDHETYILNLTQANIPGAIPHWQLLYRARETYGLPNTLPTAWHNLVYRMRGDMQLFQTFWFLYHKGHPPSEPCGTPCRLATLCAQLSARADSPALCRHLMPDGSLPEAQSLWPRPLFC
Method: Second, the ability of chloroquine to work in the aortic strip assay was tested.

L-SMase = biological target: T2, L-SMase (Mus musculus, UniProt Q04519); assay: SMase assay of cell homogenate from J774 macrophages (SM micelles, pH 5.0); format: biochemical; settings: 5 mM EDTA in assay
T2 construct: endogenous in cells; host or cells: J774.A1 macrophages, sonicated cell homogenate
T2 sequence (Q04519 45-627): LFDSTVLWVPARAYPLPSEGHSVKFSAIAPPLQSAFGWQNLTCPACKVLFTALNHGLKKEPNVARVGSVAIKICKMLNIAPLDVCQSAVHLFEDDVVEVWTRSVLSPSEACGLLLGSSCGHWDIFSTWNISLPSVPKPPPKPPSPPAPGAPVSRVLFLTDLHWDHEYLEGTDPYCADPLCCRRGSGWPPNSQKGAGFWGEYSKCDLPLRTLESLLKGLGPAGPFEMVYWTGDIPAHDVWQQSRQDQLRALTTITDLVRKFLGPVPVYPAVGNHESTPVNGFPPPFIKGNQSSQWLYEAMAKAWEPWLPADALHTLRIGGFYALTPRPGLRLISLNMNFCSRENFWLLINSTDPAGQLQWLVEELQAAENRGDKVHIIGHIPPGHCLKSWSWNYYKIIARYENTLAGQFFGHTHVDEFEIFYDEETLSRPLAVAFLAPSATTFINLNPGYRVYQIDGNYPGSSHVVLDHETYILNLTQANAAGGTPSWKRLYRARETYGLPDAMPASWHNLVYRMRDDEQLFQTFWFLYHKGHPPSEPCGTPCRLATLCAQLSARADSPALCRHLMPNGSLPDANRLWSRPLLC
Method: FIGS. 14A-B. Sequential chelation and addition of Zn^2+ to secreted and intracellular SMase. Serum-free conditioned medium and a cell homogenate from J774 macrophages were prepared as described in “Experimental Procedures”. FIG. 14A, conditioned medium (CM) was assayed for SMase activity using 250 nM [^3H]sphingomyelin in Triton X-100 micelles in the presence of either 5 mM EDTA (first bar) or 0.1 mM ZnCl2 (second bar) for 1 h at 37° C. at pH 5.0. An aliquot of the Zn-activated conditioned medium was then incubated for 18 h in the presence of 10 mM EDTA, 10 mM 1,10-phenanthroline, and 0.6% Triton X-100 at 4° C. (EDTA PHNANTH) and then assayed for SMase activity (third bar). […]
(§1) SMase Assay—As previously described (Schissel et al., 1996), the standard 200-μl assay mixture consisted of up to 40 μl of sample (conditioned media or homogenized cells; see above) and a volume of assay buffer (0.1 M sodium acetate, pH 5.0) to bring the volume to 160 μl. […] The ceramide spots were scraped and directly counted to quantify [^3H]ceramide. Typically, the assay reactions contained approximately 20 μg of cellular homogenate protein and a volume of conditioned media derived from a quantity of cells equivalent to approximately 50 μg of cellular protein.

B. cereus SMase = B. cereus SMase (Bacillus cereus, UniProt P11889); settings: 25 mM EDTA present from the start; 50 mU B. cereus SMase/ml, LDL 2 mg/ml, 37° C.
B. cereus SMase, sequence (P11889 28-333): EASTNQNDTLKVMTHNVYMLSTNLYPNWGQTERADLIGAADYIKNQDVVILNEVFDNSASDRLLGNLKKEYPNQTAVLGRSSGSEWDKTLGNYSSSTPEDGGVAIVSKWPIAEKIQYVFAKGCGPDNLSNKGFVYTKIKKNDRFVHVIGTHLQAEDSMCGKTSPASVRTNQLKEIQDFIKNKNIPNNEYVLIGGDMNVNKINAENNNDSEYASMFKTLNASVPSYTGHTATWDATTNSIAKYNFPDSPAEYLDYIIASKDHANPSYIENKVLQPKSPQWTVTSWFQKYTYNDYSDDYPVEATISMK
Method: Kinetics of SM hydrolysis and LDL aggregation induced by SMase and the effects of enzymatic inhibition. FIG. 1A: LDL (2 mg/ml) was incubated with 50 mU B. cereus SMase/ml at 37° C. in PES containing 5 nM MgCl2. At the indicated time points, aliquots of the LDL were harvested then assayed for extent of SM hydrolysis (closed triangles) and for aggregation (open squares) FIG. 1B. LDL was incubated in PBS containing 5 mM MgCl2 in the absence of SMase (filled circles), or in the presence of SMase without EDTA (open squares), with 25 mM EDTA present from the start of the incubation (open triangles), or with 25 mM EDTA added after 20 min of incubation (closed triangles) Samples were assayed for turbidity at the indicated timepoints. FIG. 1C, Aliquots from the 180-min timepoint in FIG. 1B were assayed for SM content.
Careful analysis of the time course of B. cereus SMase-induced LDL aggregation and LDL-SM hydrolysis was done. […] These kinetics are consistent with two possible mechanisms: a slow structural action of SMase, or a rapid enzymatic action that alters the particles so that they then slowly aggregate. To distinguish between these possibilities, EDTA was used to inhibit the enzymatic activity of the bacterial B. cereus SMase, which is a Mg^2+-dependent enzyme (Ikezawa et al., 1986).

S-SMase = biological target: T3, S-SMase (Mus musculus, UniProt Q04519); assay: SMase assay of conditioned medium from J774 macrophages (SM micelles, pH 5.0); format: biochemical; settings: treatment with EDTA alone
T3 construct: endogenous in cells; host or cells: J774.A1 macrophages, serum-free conditioned medium
T3 sequence (Q04519 45-627): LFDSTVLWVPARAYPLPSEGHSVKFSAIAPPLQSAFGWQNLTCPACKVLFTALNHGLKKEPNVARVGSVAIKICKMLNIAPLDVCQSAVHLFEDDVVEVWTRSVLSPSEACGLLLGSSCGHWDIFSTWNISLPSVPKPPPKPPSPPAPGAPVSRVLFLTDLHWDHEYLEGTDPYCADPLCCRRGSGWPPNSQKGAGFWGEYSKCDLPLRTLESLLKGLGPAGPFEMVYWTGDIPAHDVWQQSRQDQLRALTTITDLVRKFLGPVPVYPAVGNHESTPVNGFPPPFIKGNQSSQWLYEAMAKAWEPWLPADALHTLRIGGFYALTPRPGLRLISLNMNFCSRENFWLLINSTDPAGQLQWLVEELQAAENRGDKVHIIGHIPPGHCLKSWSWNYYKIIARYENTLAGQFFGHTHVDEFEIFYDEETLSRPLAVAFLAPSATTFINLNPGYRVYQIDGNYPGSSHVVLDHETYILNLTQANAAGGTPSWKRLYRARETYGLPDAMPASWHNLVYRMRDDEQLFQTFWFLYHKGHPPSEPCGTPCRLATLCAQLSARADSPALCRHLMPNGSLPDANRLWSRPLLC
Method: FIGS. 14A-B. Sequential chelation and addition of Zn^2+ to secreted and intracellular SMase. Serum-free conditioned medium and a cell homogenate from J774 macrophages were prepared as described in “Experimental Procedures”. FIG. 14A, conditioned medium (CM) was assayed for SMase activity using 250 nM [^3H]sphingomyelin in Triton X-100 micelles in the presence of either 5 mM EDTA (first bar) or 0.1 mM ZnCl2 (second bar) for 1 h at 37° C. at pH 5.0. An aliquot of the Zn-activated conditioned medium was then incubated for 18 h in the presence of 10 mM EDTA, 10 mM 1,10-phenanthroline, and 0.6% Triton X-100 at 4° C. (EDTA PHNANTH) and then assayed for SMase activity (third bar). After chelation, a portion of this partially inactivated conditioned medium was then dialyzed against zinc-containing buffer C (150 mM NaCl, 10 mM Tris-HCl, 1 mM ZnCl2, 0.6% Triton X-100, pH 7.4) for 18 h and then assayed for SMase activity (fourth bar). FIG. 14B, an aliquot of cell homogenate (Cell Homgn) was assayed for SMase activity in the presence of assay buffer alone (first bar), 5 mM EDTA (second bar), or 0.1 mM ZnCl2 (third bar). Another aliquot of cell homogenate was incubated for 8 h in the presence of 10 mM EDTA, 10 mm 1,10-phenanthroline, and 0.6% Triton X-100 (EDTA PHNANTH) at 4° C. and then assayed for SMase activity (fourth bar). An aliquot of this chelator-treated cell homogenate was then dialyzed against zinc-containing buffer C for 18 h and then assayed for SMase activity (fifth bar).
as §1

EC matrix = assay: 125I-S-SMase binding to matrix derived from cultured cells; settings: in presence of lipoprotein lipase
Source text: In vitro, Smase causes lipoprotein aggregation, which is a key feature of atheromata and an inducer of foam cells. […] We have identified S-Mase (JBC 271:18431) as a candidate for this arterial Smase, owing to its secretion by endothelial cells (ECs) and macrophages and for its ability to hydrolzye atherogenic lipoproteins (JBC 273:2738 & 4081). We addressed two questions critical to the role of S-SMase in atherogenesis: is S-SMase present in lesions and does S-SMase bind matrix after secretion? Using two different anti-SMase antibodies, Smase staining was prominent in the endothelium of normal rabbit and mouse aorta. In atherosclerotic aorta from cholesterol-fed rabbits and apoE knockout mice and in human coronary lesions, there was very heavy Smase staining throughout the entire intima (endothelium and foam cells). In both normal and lesional aorta, there was staining of the mdia but far less than in the intima. […] To explore this point in vitro, ^125I-S-SMase was incubated with matrix derived from cultured smooth muscle or Ecs. With both, the moles of bound ^125I-S-SMase were≧bound ^125I-LDL, which is known to associate with matrix in vitro and in vivo. […] In summary, Smase, an enzyme implicated in atherogenesis, is present in normal endothelium and especially lesional intima, and there is evidence that S-Mase binds matrix both in vivo and in vitro.

[1] = test system: S-SMase secretion by HUVECs; assay: Cytokine regulation of S-SMase secretion by HUVECs (SMase activity in conditioned media); format: cell-based, human; settings: 18 h, IL-1β 5 ng/ml, interferon-γ 1000 units/ml
Method: The cells were then washed 3 times with PBS and incubated for 24 h in 1 ml fresh serum-free media containing 0.2%6 BSA. This 24-h conditioned medium was collected for SMase assays.
Harvesting of Cells and Conditioned Media—Following the incubations described above and in the figure legends, cells were placed on ice and the serum-free conditioned media was removed. The cells were washed two times with ice-cold 0.25 M sucrose and scraped into 0.3 ml and 3.0 ml of this sucrose solution per 35-mm and 100-mm dishes, respectively. Unless indicated otherwise, the scraped cells were disrupted by sonication on ice using three 5-second bursts (Branson 450 Sonifier), and the cellular homogenates were assayed for total protein by the method of Lowry et al. (22) and for SMase activity as described below. The conditioned media were spun at 800×g for 5 min to pellet any contaminating cells and concentrated six-fold using a Centriprep 30 (Amicon; Beverly, Mass.) concentrator (molecular weight cut off=30,000).
Typically, our assay reactions contained approximately 20 μg of cellular homogenate protein and a volume of conditioned media derived from a quantity of cells equivalent to approximately 50 μg of cellular protein.

L-SMase of HUVECs = assay: Cytokine regulation of L-SMase activity in HUVEC cell homogenates; format: cell-based, human; settings: cytokine-treated endothelial cells
Method: FIGS. 23A-B. Cytokine regulation of S- and L-SMase of HUVECs. […] Conditioned media (FIG. 23A) and cell homogenates (FIG. 23B) from these cells were then assayed for SMase activity in the presence or absence of 0.1 mM ZnCl2, respectively.
Cells—Primary cultures of HUVEC were obtained from fresh umbilical cords and maintained in cell culture as previously described (31). Human coronary artery endothelial cells from a donor were purchased from Clonetics Corp. (San Diego, Calif.; cat. # CC-2585, Strain #3033). The cells were grown in endothelial basal media (EBM) (Clonetics) supplemented with 10% HI-FES; 10 μg endothelial cell growth supplement/ml (Sigma; cat. # E0760) and 50 μg gentamicin/ml. Primary cultures of bovine aortic endothelial, cells were established and subcultured as described previously (32). […]

## CCN(CC)CCCC(C)Nc1ccnc2cc(Cl)ccc12 (stereo not shown) [chloroquine]
Lysosomal hydrolases
  block of degradation of 125I-EGF: 50%
arterial-wall SMase; 200 μM chloroquine, 30 min preincubation and 3.5-h incubation
  inhibition of [3H]ceramide enrichment of retained material: no substantial inhibition
arterial-wall SMase
  hydrolysis of LDL-sphingomyelin by rabbit aorta ex vivo (summary statement): not inhibited
Lysosomal SMase
  inhibition at 50 µM: 73%

## O=C(O)CN(CCN(CC(=O)O)CC(=O)O)CC(=O)O [EDTA]
L-SMase
  inhibition of L-SMase in cell homogenates: not inhibited
B. cereus SMase
  inhibition of LDL aggregation (turbidity): complete inhibition
  inhibition of LDL-SM hydrolysis: complete inhibition
arterial-wall SMase; 15 mM EDTA, 30 min preincubation and 3.5-h incubation with [3H]SM-LDL
  decrease in generation of ceramide in extracted (retained) material: approximately 50%
arterial-wall SMase
  hydrolysis of LDL-sphingomyelin by rabbit aorta ex vivo (summary statement): inhibited
S-SMase
  effect on S-SMase enzyme activity: did not affect enzyme activity

B1: lipoprotein lipase: arterial-wall enzyme (protein, UniProt P06858 28-475, looked up)
Lipoprotein lipase: ADQRRDFIDIESKFALRTPEDTAEDTCHLIPGVAESVATCHFNHSSKTFMVIHGWTVTGMYESWVPKLVAALYKREPDSNVIVVDWLSRAQEHYPVSAGYTKLVGQDVARFINWMEEEFNYPLDNVHLLGYSLGAHAAGIAGSLTNKKVNRITGLDPAGPNFEYAEAPSRLSPDDADFVDVLHTFTRGSPGRSIGIQKPVGHVDIYPNGGTFQPGCNIGEAIRVIAERGLGDVDQLVKCSHERSIHLFIDSLLNEENPSKAYRCSSKEAFEKGLCLSCRKNRCNNLGYEINKVRAKRSSKMYLKTRSQMPYKVFHYQVKIHFSGTESETHTNQAFEISLYGTVAESENIPFTLPEVSTNKTYSFLIYTEVDIGELLMLKLKWKSDSYFSWSDWWSSPGFAIQKIRVKAGETQKKVIFCSREKVSHLQKGKAPAVFVKCHDKSLNKKSG
EC matrix
  S-SMase binding to matrix: enhanced

B2: interferon-γ: human recombinant interferon-γ (protein, UniProt P01579 24-161, looked up)
Interferon gamma: QDPYVKEAENLKKYFNAGHSDVADNGTLFLGILKNWKEESDRKIMQSQIVSFYFKLFKNFKDDQSIQKSVETIKEDMNVKFFNSNKKKRDDFEKLTNYSVTDLNVQRKAIHELIQVMAELSPAAKTGKRKRSQMLFRG
[1]
  increase of S-SMase activity / secretion (conditioned media): ~3 fold
L-SMase of HUVECs
  L-SMase (lysosomal SMase) activity: decreased
